pEC50: −log10 of the molar value.
target: T1, GABAB receptor (GABABR1a/GABABR2 heterodimer) (Homo sapiens, UniProt O75899+Q9UBS5); test: [35S]-GTPγS binding assay, potency of PAM (GABA dose-response curves with and without test compound); type: biochemical; conditions: potency of the positive allosteric modulator; GABA dose-response in presence of test compound
T1 construct: expressed in transfected cells
Description: GABABR1a and GABABR2 were cloned from human brain cDNA and subcloned into pCI-Neo (Promega) and pALTER-1 (Promega), respectively. A GABABR1a-Gαqi5 fusion protein expression vector was constructed using the pCI-Neo-GABABR1a cDNA plasmid and pLEC1-Gαqi5 (Molecular Devices, CA). In order to make the Gαqi5 pertussis toxin insensitive, Cys356 was mutated to Gly using standard PCR methodology with the primers 5′-[…]-3′ (forward) and 5′-GCGGCCG […]-3′ (reverse). The Gαqi5mut cDNA was ligated into the BamHI and NotI sites of pcDNA3.0 (Invitrogen). The GABAB R1a coding sequence was amplified by PCR from pCI-Neo-GABABR1a using the primers, 5′-[…]-3′ (forward) and 5′-[…]-3′ (reverse) and subcloned into the BamHI site of pcDNA3.0-Gαqi5mut.
For generation of a cell line expressing the GABABR1a/GABABR2 heterodimer, GABABR1a plasmid DNA (4 μg) GABABR2 plasmid DNA (4 μg) and lipofectamine (24 μl) were mixed in 5 ml OptiMEM and incubated for 45 minutes at room temperature. The cells were exposed to the transfection medium for 5 hours, which then was replaced with culture medium. The cells were cultured for an additional 10 days before selection agents (300 μg/ml hygromycin and 400 μg/ml geneticin) were added. Twenty-four days after transfection, single cell sorting into 96-well plates by flow cytometry was performed using a FACS Vantage SE (Becton Dickinson, Palo Alto, Calif.). After expansion, the GABAB receptor functional response was tested using the FLIPR assay described below. The clone with the highest functional response was collected, expanded and then subcloned by single cell sorting. The clonal cell line with the highest peak response in the FLIPR was used in the present study.
For generation of a stable cell line expressing GABABR1a-Gαqi5 fusion protein and GABABR2, GABABR1a-Gαqi5mut plasmid DNA (8 μg) GABABR2 plasmid DNA (8 μg) and lipofectamine (24 μl) were mixed in 5 ml OptiMEM and incubated for 45 minutes at room temperature. The cells were exposed to the transfection medium for 5 hours, which then was replaced with culture medium. After forty-eight hours, the cells were detached and seeded in 6 well plates (2000 cells/well) and grown in culture medium supplemented with geneticin (400 μg/ml) and zeocin (250 μg/ml). After 4 days, cells from single colonies were collected and transferred to a 24-well plate. After 10 days, the cell clones were seeded in T-25 flasks and grown for another 16 days before they were tested for GABAB receptor mediated functional response. […] The clonal cell line that gave the highest peak response in the FLIPR was used in the present study.
[^35S]-GTPγS binding assays were performed at 30° C. for 45 min in membrane buffer (100 mM NaCl, 5 mM MgCl2, 1 mM EDTA, 50 mM HEPES, pH 7.4) containing 0.025 μg/μl of membrane protein (prepared from the cell lines described above) with 0.01% bovine serum albumin (fatty acid free), 10 μM GDP, 10 μM DTT and 0.53 nM [^35S]-GTPγS (Amersham-Pharmacia Biotech) in a final volume of 200 μl. Non-specific binding was determined in the presence of 20 μM GTPγS. The reaction was started by the addition of GABA at concentration between 1 mM and 0.1 nM in the presence or absence of the required concentration of PAM. The reaction was terminated by addition of ice-cold wash buffer (50 mM Tris-HCl, 5 mM MgCl2, 50 mM NaCl, pH 7.4) followed by rapid filtration under vacuum through Printed Filtermat A glass fiber filters (Wallac) (0.05% PEI treated) using a Micro 96 Harvester (Skatron Instruments). The filters were dried for 30 min at 50° C., then a paraffin scintillant pad was melted onto the filters and the bound radioactivity was determined using a 1450 Microbeta Trilux (Wallac) scintillation counter.
GABA dose-response curves in the presence and absence of test compounds were constructed using the 4-parameter logistic equation, y=ymax+((ymin−ymax)/1+(x/C)^D), where C=EC50 and D=slope factor.

T1 sequence (Q9UBS5 15-961 limits assumed): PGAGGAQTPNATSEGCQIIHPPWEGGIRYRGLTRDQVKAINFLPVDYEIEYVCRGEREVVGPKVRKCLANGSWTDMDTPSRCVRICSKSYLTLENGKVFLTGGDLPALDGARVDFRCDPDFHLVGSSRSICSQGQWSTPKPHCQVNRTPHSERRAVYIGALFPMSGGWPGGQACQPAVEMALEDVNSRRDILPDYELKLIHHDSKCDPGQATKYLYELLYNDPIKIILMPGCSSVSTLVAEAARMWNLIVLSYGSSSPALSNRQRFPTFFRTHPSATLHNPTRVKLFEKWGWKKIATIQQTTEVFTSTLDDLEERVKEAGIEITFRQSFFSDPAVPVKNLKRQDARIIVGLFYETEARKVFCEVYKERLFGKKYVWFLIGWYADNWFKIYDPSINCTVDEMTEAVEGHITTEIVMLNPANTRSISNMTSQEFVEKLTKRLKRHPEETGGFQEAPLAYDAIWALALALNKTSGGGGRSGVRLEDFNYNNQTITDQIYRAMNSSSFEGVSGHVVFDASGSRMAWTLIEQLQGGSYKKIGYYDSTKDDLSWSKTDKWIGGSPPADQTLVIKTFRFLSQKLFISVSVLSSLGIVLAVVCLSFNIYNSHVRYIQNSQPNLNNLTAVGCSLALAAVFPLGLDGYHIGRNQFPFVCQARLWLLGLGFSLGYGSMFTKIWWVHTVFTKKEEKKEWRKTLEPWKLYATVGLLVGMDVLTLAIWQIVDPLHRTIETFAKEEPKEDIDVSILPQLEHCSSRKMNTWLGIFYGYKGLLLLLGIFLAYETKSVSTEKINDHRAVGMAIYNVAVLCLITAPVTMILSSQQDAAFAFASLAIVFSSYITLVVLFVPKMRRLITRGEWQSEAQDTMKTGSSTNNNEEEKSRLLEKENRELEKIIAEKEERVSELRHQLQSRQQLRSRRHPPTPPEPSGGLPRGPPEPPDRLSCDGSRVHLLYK
T1 sequence (O75899 42-941): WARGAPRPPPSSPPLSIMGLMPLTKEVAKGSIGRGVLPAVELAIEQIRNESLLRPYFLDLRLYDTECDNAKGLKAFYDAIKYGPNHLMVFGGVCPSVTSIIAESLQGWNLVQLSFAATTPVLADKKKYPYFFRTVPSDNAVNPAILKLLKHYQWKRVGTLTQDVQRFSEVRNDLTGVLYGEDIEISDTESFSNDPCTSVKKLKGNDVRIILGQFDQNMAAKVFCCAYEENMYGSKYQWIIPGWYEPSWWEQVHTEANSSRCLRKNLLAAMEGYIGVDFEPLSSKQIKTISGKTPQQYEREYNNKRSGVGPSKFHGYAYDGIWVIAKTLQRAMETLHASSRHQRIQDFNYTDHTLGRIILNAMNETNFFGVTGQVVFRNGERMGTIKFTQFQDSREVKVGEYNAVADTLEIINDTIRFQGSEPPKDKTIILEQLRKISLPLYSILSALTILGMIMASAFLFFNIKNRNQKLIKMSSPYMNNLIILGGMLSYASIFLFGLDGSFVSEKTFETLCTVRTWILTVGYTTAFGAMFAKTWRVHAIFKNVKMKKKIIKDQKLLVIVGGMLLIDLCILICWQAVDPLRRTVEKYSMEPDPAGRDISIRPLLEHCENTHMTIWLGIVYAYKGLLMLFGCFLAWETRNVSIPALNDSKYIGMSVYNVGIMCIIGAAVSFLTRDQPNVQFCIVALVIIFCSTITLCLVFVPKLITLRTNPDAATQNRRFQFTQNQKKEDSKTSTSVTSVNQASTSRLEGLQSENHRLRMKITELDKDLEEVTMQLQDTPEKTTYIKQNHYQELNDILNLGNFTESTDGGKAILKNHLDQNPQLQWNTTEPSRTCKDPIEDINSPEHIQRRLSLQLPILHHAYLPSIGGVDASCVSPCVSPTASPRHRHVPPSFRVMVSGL

SMILES	pEC50
CCCn1c(=O)n(Cc2ccc(Cl)cc2Cl)c(=O)c2c1nc(CC)n2C [Example 60, 1-(2,4-Dichlorobenzyl)-8-ethyl-7-methyl-3-propyl-3,7-dihydro-1H-purine-2,6-dione]	4.76
CCCn1c(=O)n(Cc2ccc(Br)cc2)c(=O)c2c1nc(CC)n2C [Example 61, 1-(4-Bromobenzyl)-8-ethyl-7-methyl-3-propyl-3,7-dihydro-1H-purine-2,6-dione]	5.38
CCCn1c(=O)n(Cc2ccc(C(F)(F)F)cc2)c(=O)c2c1nc(CC)n2C [Example 62, 8-Ethyl-7-methyl-3-propyl-1-[4-(trifluoromethyl)benzyl]-3,7-dihydro-1H-purine-2,6-dione]	5.24
CCCn1c(=O)n(CCc2ccc(Cl)cc2)c(=O)c2c1nc(CC)n2C [Example 63, 1-[2-(4-Chlorophenyl)ethyl]-8-ethyl-7-methyl-3-propyl-3,7-dihydro-1H-purine-2,6-dione]	4.86
CCCn1c(=O)n(Cc2ccc3nsnc3c2)c(=O)c2c1nc(CC)n2C [Example 64, 1-(2,1,3-Benzothiadiazol-5-ylmethyl)-8-ethyl-7-methyl-3-propyl-3,7-dihydro-1H-purine-2,6-dione]	4.95
CCCn1c(=O)n(Cc2nc3cc(C(F)(F)F)ccc3s2)c(=O)c2c1nc(CC)n2C [Example 66, 8-Ethyl-7-methyl-3-propyl-1-{[5-(trifluoromethyl)-1,3-benzothiazol-2-yl]methyl}-3,7-dihydro-1H-purine-2,6-dione]	4.76
CCCn1c(=O)n(Cc2cccc(Cl)c2)c(=O)c2c1nc(CC)n2C [Example 67, 1-(3-Chlorobenzyl)-8-ethyl-7-methyl-3-propyl-3,7-dihydro-1H-purine-2,6-dione]	4.82
CCCn1c(=O)n(Cc2ccc(C(=O)c3ccccc3)cc2)c(=O)c2c1nc(CC)n2C [Example 68, 1-(4-Benzoylbenzyl)-8-ethyl-7-methyl-3-propyl-3,7-dihydro-1H-purine-2,6-dione]	4.80
CCCn1c(=O)n(Cc2ccc(OC)cc2)c(=O)c2c1nc(CC)n2C [Example 69, 8-Ethyl-1-(4-methoxybenzyl)-7-methyl-3-propyl-3,7-dihydro-1H-purine-2,6-dione]	4.71
CCCn1c(=O)n(Cc2ccc(C(C)C)cc2)c(=O)c2c1nc(CC)n2C [Example 70, 8-Ethyl-1-(4-isopropylbenzyl)-7-methyl-3-propyl-3,7-dihydro-1H-purine-2,6-dione]	5.21
CCc1nc2c(c(=O)n(Cc3ccc(Cl)cc3)c(=O)n2Cc2ccc(OC)cc2OC)n1C [Example 71, 1-(4-Chlorobenzyl)-3-(2,4-dimethoxybenzyl)-8-ethyl-7-methyl-3,7-dihydro-1H-purine-2,6-dione]	4.95
CCCn1c(=O)n(Cc2ccc(Cl)cc2)c(=O)c2c1nc(CC)n2CC [Example 72, 1-(4-Chlorobenzyl)-7,8-diethyl-3-propyl-3,7-dihydro-H-purine-2,6-dione]	5.05
CCCn1c(=O)n(Cc2ccc(Cl)cc2)c(=O)c2c1nc(CC)n2-c1ccc(F)cc1 [Example 74, 1-(4-Chlorobenzyl)-8-ethyl-7-(4-fluorophenyl)-3-propyl-3,7-dihydro-1H-purine-2,6-dione]	5.00
CCc1nc2c(c(=O)n(Cc3ccc(Cl)cc3)c(=O)n2CCC(F)(F)F)n1C [Example 75]	5.46
CCc1nc2c(c(=O)n(Cc3ccc(Cl)cc3)c(=O)n2CCCC(F)(F)F)n1C [Example 76]	5.31
CCn1c(=O)n(Cc2ccc(Cl)cc2)c(=O)c2c1nc(OC)n2-c1ccc(F)cc1 [Example 77, 1-(4-chlorobenzyl)-3-ethyl-7-(4-fluorophenyl)-8-methoxy-3,7-dihydro-1H-purine-2,6-dione]	5.18
CCCn1c(=O)n(Cc2ccc(Cl)cc2)c(=O)c2c1nc(OC)n2C [Example 78, 1-(4-Chlorobenzyl)-8-methoxy-7-methyl-3-propyl-3,7-dihydro-1H-purine-2,6-dione]	5.35
CCCn1c(=O)n(Cc2ccc(F)cc2)c(=O)c2c1nc(OC)n2C [Example 79, 1-(4-Fluorobenzyl)-8-methoxy-7-methyl-3-propyl-3,7-dihydro-1H-purine-2,6-dione]	4.84
COc1nc2c(c(=O)n(Cc3ccc(Cl)cc3)c(=O)n2CCC(F)(F)F)n1C [Example 80, 1-(4-chlorobenzyl)-8-methoxy-7-methyl-3-(3,3,3-trifluoropropyl)-3,7-dihydro-1H-purine-2,6-dione]	5.28
COc1nc2c(c(=O)n(Cc3ccc(Cl)cc3)c(=O)n2CCCC(F)(F)F)n1C [Example 81, 1-(4-chlorobenzyl)-8-methoxy-7-methyl-3-(4,4,4-trifluorobutyl)-3,7-dihydro-1H-purine-2,6-dione]	4.94
CCCn1c(=O)n(Cc2ccc(Cl)cc2)c(=O)c2c1nc(N(C)C)n2C [Example 82, 1-(4-chlorobenzyl)-8-(dimethylamino)-7-methyl-3-propyl-3,7-dihydro-1H-purine-2,6-dione]	5.25
CCCn1c(=O)n(Cc2ccc(Cl)cc2)c(=O)c2c1nc(N1CCC1)n2C [Example 83, 8-azetidin-1-yl-1-(4-chlorobenzyl)-7-methyl-3-propyl-3,7-dihydro-1H-purine-2,6-dione]	5.11
CCCn1c(=O)n(Cc2ccc(Cl)cc2)c(=O)c2c1nc(N1CCC(OC)CC1)n2C [Example 84, 1-(4-chlorobenzyl)-8-(4-methoxypiperidin-1-yl)-7-methyl-3-propyl-3,7-dihydro-1H-purine-2,6-dione]	5.29
CCCn1c(=O)n(Cc2ccc(Cl)cc2)c(=O)c2c1nc(N1CCCCC1)n2C [Example 85, 1-(4-chlorobenzyl)-7-methyl-8-piperidin-1-yl-3-propyl-3,7-dihydro-1H-purine-2,6-dione]	5.72
CCCn1c(=O)n(Cc2ccc(Cl)cc2)c(=O)c2c1nc(N1CCCC1)n2C [Example 86, 1-(4-chlorobenzyl)-7-methyl-3-propyl-8-pyrrolidin-1-yl-3,7-dihydro-1H-purine-2,6-dione]	5.44
CCCn1c(=O)n(Cc2ccc(Cl)cc2)c(=O)c2c1nc(N1CCN(C)CC1)n2C [Example 87, 1-(4-chlorobenzyl)-7-methyl-8-(4-methylpiperazin-1-yl)-3-propyl-3,7-dihydro-1H-purine-2,6-dione]	4.81
CCCn1c(=O)n(Cc2ccc(Cl)cc2)c(=O)c2c1nc(N1CCSCC1)n2C [Example 88, 1-(4-chlorobenzyl)-7-methyl-3-propyl-8-thiomorpholin-4-yl-3,7-dihydro-1H-purine-2,6-dione]	5.43
CCCn1c(=O)n(Cc2ccc(Cl)cc2)c(=O)c2c1nc(N(CC)CC)n2C [Example 89, 1-(4-chlorobenzyl)-8-(diethylamino)-7-methyl-3-propyl-3,7-dihydro-1H-purine-2,6-dione]	5.74
CCCn1c(=O)n(Cc2ccc(Cl)cc2)c(=O)c2c1nc(N(C)CCOC)n2C [Example 91, 1-(4-chlorobenzyl)-8-[(2-methoxyethyl)(methyl)amino]-7-methyl-3-propyl-3,7-dihydro-1H-purine-2,6-dione]	5.08
CCCn1c(=O)n(Cc2ccc(Cl)cc2)c(=O)c2c1nc(N1CCOCC1)n2C [Example 92, 1-(4-chlorobenzyl)-7-methyl-8-morpholin-4-yl-3-propyl-3,7-dihydro-1H-purine-2,6-dione]	5.15
